Read-outs that look alike come from different tables or passages of the source.
Legend:
[1] = test system: E. coli BL21-CodonPlus(DE3)-RP carrying pHAT-305; test: In vivo whole cell reactions; type: cell-based; details: IPTG-induced cultures, 1 mg/ml substrate acid
Method: In vivo whole cell reactions were typically conducted with 100 ml cultures of E. coli BL21-CodonPlus®(DE3)-RP carrying pHAT-305. Cultures were induced by 1 mM IPTG for 4 hrs before receiving 1 mg/ml of benzoic acid, vanillic acid, or ferulic acid.
Samples of approximately 2 mL were removed at various time intervals, sample pH was adjusted to pH 2.0 with 6N HCl, and samples were extracted with 1 ml ethyl acetate, and centrifuged for 2 min at 1,000×g. Organic phases were removed and used to spot silica gel GF254 TLC plates for analysis, and comparison with authentic standards of benzaldehyde, vanillin and coniferaldehyde. For metabolite isolation, reactions were stopped by adjustment of mixtures to pH 2.0 with 6N HCl, and extracted three times with half-volumes of ethyl acetate. After removal of solvent by rotary evaporation, reduction products were purified by preparative TLC for analysis and comparison with authentic standards.

[2] = biological target: T1, carboxylic acid reductase (CAR) (Nocardia iowensis, UniProt Q6RKB1, L218S); type: biochemical, Nocardia sp. NRRL 5646; details: for Km: cofactors of purified HAT-CAR, Cleland's kinetics program; for Specific activity: 25° C.
T1 construct: made in house; host or cells: E. coli BL21-CodonPlus(DE3)-RP carrying pHAT-305
Method: Enzyme assay. The standard reaction mixture contained 1 mM ATP, 0.15 mM NADPH, 5 mM sodium benzoate, 10 mM MgCl2 and enzyme in 0.05 M Tris buffer (pH 7.5) containing 1 mM EDTA, 1 mM DTT and 10% glycerol (vol/vol), in a final volume of 1.4 ml. The reference cuvette contained all components except benzoate. Reactions were initiated by adding enzyme, and were monitored by recording the absorption decrease at 340 nm at 25° C. with a Shimadzu UV-2010PC scanning spectrophotometer. One unit of the enzyme was defined as the amount of enzyme that catalyzed the reduction of 1 µmol of benzoate to benzaldehyde.min^−1 under standard assay condition. Protein concentrations were measured by the Bradford protein microassay (4) with bovine serum albumin as the standard.

Molecule	in vivo transformation by whole cells [1]	Km [2] [µM]	further results
COc1cc(C=O)ccc1O [vanillin]	converted to their corresponding alcohols	–	–
COc1cc(/C=C/C=O)ccc1O [coniferyl aldehyde]	converted to their corresponding alcohols	–	–
NC(=O)C1=CN([C@@H]2O[C@H](COP(=O)(O)OP(=O)(O)OC[C@H]3O[C@@H](n4cnc5c(N)ncnc54)[C@H](OP(=O)(O)O)[C@@H]3O)[C@@H](O)[C@H]2O)C=CC1 [NADPH]	–	57 ± 3.6	–
O=C(O)c1ccccc1 [benzoate, benzoic acid]	quickly converted to benzyl alcohol	–	–
Nc1ncnc2c1ncn2[C@@H]1O[C@H](COP(=O)(O)OP(=O)(O)OP(=O)(O)O)[C@@H](O)[C@H]1O [ATP]	–	69 ± 6.6	–
HAT-CAR: HAT-tagged recombinant Nocardia carboxylic acid reductase fusion protein expressed in E. coli from pHAT-305 (protein, left off: small tags and cut ends) AVDSPDERLQRRIAQLFAEDEQVKAARPLEAVSAAVSAPGMRLAQIAATVMAGYADRPAAGQRAFELNTDDATGRTSLRLLPRFETITYRELWQRVGEVAAAWHHDPENPLRAGDFVALLGFTSIDYATLDLADIHLGAVTVPLQASAAVSQLIAILTETSPRLLASTPEHLDAAVECLLAGTTPERLVVFDYHPEDDDQRAAFESARRRLADAGSSVIVETLDAVRARGRDLPAAPLFVPDTDDDPLALLIYTSGSTGTPKGAMYTNRLAATMWQGNSMLQGNSQRVGINLNYMPMSHIAGRISLFGVLARGGTAYFAAKSDMSTLFEDIGLVRPTEIFFVPRVCDMVFQRYQSELDRRSVAGADLDTLDREVKADLRQNYLGGRFLVAVVGSAPLAAEMKTFMESVLDLPLHDGYGSTEAGASVLLDNQIQRPPVLDYKLVDVPELGYFRTDRPHPRGELLLKAETTIPGYYKRPEVTAEIFDEDGFYKTGDIVAELEHDRLVYVDRRNNVLKLSQGEFVTVAHLEAVFASSPLIRQIFIYGSSERSYLLAVIVPTDDALRGRDTATLKSALAESIQRIAKDANLQPYEIPRDFLIETEPFTIANGLLSGIAKLLRPNLKERYGAQLEQMYTDLATGQADELLALRREAADLPVLETVSRAAKAMLGVASADMRPDAHFTDLGGDSLSALSFSNLLHEIFGVEVPVGVVVSPANELRDLANYIEAERNSGAKRPTFTSVHGGGSEIRAADLTLDKFIDARTLAAADSIPHAPVPAQTVLLTGANGYLGRFLCLEWLERLDKTGGTLICVVRGSDAAAARKRLDSAFDSGDPGLLEHYQQLAARTLEVLAGDIGDPNLGLDDATWQRLAETVDLIVHPAALVNHVLPYTQLFGPNVVGTAEIVRLAITARRKPVTYLSTVGVADQVDPAEYQEDSDVREMSAVRVVRESYANGYGNSKWAGEVLLREAHDLCGLPVAVFRSDMILAHSRYAGQLNVQDVFTRLILSLVATGIAPYSFYRTDADGNRQRAHYDGLPADFTAAAITALGIQATEGFRTYDVLNPYDDGISLDEFVDWLVESGHPIQRITDYSDWFHRFETAIRALPEKQRQASVLPLLDAYRNPCPAVRGAILPAKEFQAAVQTAKIGPEQDIPHLSAPLIDKYVSDLELLQLL	–	–	Specific activity ([2]; purification step: Crude extract): 0.009 U/mg; Specific activity ([2]; purification step: DEAE Sepharose): 0.09 U/mg; Specific activity ([2]; purification step: Talon Matrix): 0.066 U/mg; specific CAR activity ([2]; purified HAT-CAR): 0.11 μmol.min^−1.mg-^−1 protein; Vmax ([2]; purified recombinant HAT-CAR): 0.135±0.004 μmol.min^−1.mg^−1 protein

Reference: patent publication US7425433B2, “Carboxylic acid reductase polypeptide, nucleotide sequence encoding same and methods of use” (priority 2003, dated 2008)
